pIC50: −log10 of the molar value.
Assays:
human full-length Syk = biological target: T1, human full-length Syk (Homo sapiens, UniProt P43405); assay: Syk Enzyme assay - Radioactive filtration kinase assay; assay type: biochemical; details: recombinant human full-length Syk 1 nM, poly-GT substrate, [γ-33P] ATP, 40 min room temperature
T1 construct: Recombinant human full-length Syk was supplied by Millipore; purchased Millipore
Description: Syk Enzyme assay- Radioactive filtration kinase assay
Recombinant human full-length Syk was supplied by Millipore. The activity of Syk kinase was assessed using a radioactive filtration kinase assay.
10 µL of substrate poly-GT (100 µg/mL final) and 4 µl of Syk (1 nM final) in 50 mM Tris-HCl (pH 7.5), 0.1 mM EGTA, 4 mM Mg(CH3COO)2, 0.1 mM Na3VO4, 0.1% (v/v) β-mercaptoethanol, 0.133 mg/mL BSA (bovine serum albumin) were added to 1.5 µl of various concentrations of compound or DMSO vehicle (5% final). The reaction was initiated by the addition of 14.5 µL of 0.36 µCi [γ-^33P] ATP (adenosine tri-phosphate) (10 mCi/ml, PerkinElmer). This was prepared in a half-area NBS plate (Corning) and allowed to stand at room temperature for 40 min.
15 µL of reaction mixture was transferred to a filter plate (Millipore) previously prewetted with a solution of 75 mM phosphoric acid. The reaction was terminated with the addition of 200 µL phosphoric acid. The filter plate was washed three times under vacuum on a vacuum manifold (Millipore cat# MSVMHTS00) at 8" Hg vacuum level with 200 µL phosphoric acid per wash.
30 µL Optiphase™ Supermix (PerkinElmer) was added to each test well and allowed to incubate for at least 1 h before counting. Radioactivity counting was performed in a Wallac MicroBeta®, and the tyrosine phosphorylation activity by Syk was calculated.

LAD2 cells = LAD2 cells assay (mast cell degranulation, β-hexosaminidase release); assay type: cell-based; details: Homo sapiens, 0.5 h; biotin-labeled IgE sensitized LAD2 cells, compound 30 min, activated with 125 ng/mL streptavidin 30 min, released β-hexosaminidase
Description: LAD2 is a human mast cell line depending on stem cell factor for its survival, maturation and differentiation. This mast cell line was established by the NIH from bone marrow aspirates from a patient with mast cell sarcoma. LAD2 cells resemble CD34+ - derived human mast cells as they have granules containing tryptase, histamine and β-hexosaminidase. They also express c-kit and FcεRI (Kirshenbaum, et al., Leukemia Research 27: 677-682, 2003).
Sensitization of LAD2 cells
Cells were sensitized (0.2x10^6 cells/mL) in its normal growth factor (Complete StemPro-34 SFM, Gibco 10639-011 containing StemPro-34 nutrient supplement (1/40); glutamine (2 mM) and supplemented with 100 ng/ml SCF) by adding 100 ng/mL of biotin-labeled IgE (USBiological) overnight (16-18 h, 37º, 5% CO2) in a humidified atmosphere (90%).
Compounds were prepared from a 10^-2M stock in 100% DMSO to give seven successive 1/3 dilutions in DMSO. From each concentration, 2 further 1/10 dilutions were prepared in release buffer (137 mM NaCl, 2.70 mM KCI, 0.4 mM NaH2PO4, 5.6 mM (D)-glucose, 1.8 mM CaCl2, 1.3 mM MgSO4, 0.025% BSA). Finally, 5 µl from each diluted concentration were transferred into the assay plate (flat 96-well Nunc). The final compound concentrations tested ranged from 1x10^-5M to 4.12x10^-9M with a final proportion of DMSO in the assay of 0.1%. Control wells were treated with 0.1 % DMSO.
Sensitized LAD2 cells were centrifuged (300 g, 3 min, R.T.) and washed 2 times with release buffer. Cells were resuspended in release buffer and adjusted to a density of 0.2x10^6/mL. 45 µL of the adjusted cells were transfered to the assay plate (∼10,000cells/well) containg 5 µL of the final compound concentrations. LAD2 cells were incubated with the compound for 30 min (37 °C, 5% CO2 90% of humidity) and then activated with 125 ng/mL of streptavidin (Pierce 21125) for 30 min (37°C, 5% CO2, 90% of humidity). After the activation, cells were centrifuged at 1200 g, 10 min, 12 °C and supernatats were removed and transfered to another well for determination of released β-hexosaminidase. Empty wells were filled with 50 µL of release buffer for determination of intracellular β-hexosaminidase. Cells were lysed with 2 cycles of freeze-thaw.
Cells were incubated for 90 minutes, 37 °C with 1 mM β-hexosaminidase substrate (p-nitrophenyl N-acetyl-D-glucosamide, in citric buffer, pH 4.5). Reaction was stopped with 0.4 M glycine solution (pH 10.0) and the plate is read immediately at 405 nm.

| SMILES | pIC50 (human full-length Syk) | pIC50 (LAD2 cells) |
| --- | --- | --- |
| c1ccc2c(c1)c(Nc1cnccn1)nn2-c1ccnc(N2CCCNCC2)c1 [Example 8, 1-[2-(1,4-Diazepan-1-yl)pyridin-4-yl]-N-pyrazin-2-yl-1H-indazol-3-amine] | 7.77 |  |
| c1ccc2c(c1)c(Nc1cnccn1)nn2-c1ccnc(N2C[C@@H]3C[C@H]2CN3)c1 [Example 10, 1-{2-[(1S,4S)-2,5-Diazabicyclo[2.2.1]hept-2-yl]pyridin-4-yl}-N-pyrazin-2-yl-1H-indazol-3-amine] | 8.13 | 7.26 |
| Nc1ccc2c(Nc3cnccn3)nn(-c3ccnc(N4C[C@@H]5C[C@H]4CN5)c3)c2c1 [Example 12, 1-{2-[(1S,4S)-2,5-Diazabicyclo[2.2.1]hept-2-yl]pyridin-4-yl}-N^3-pyrazin-2-yl-1H-indazole-3,6-diamine] | 8.60 | 6.78 |
| O=C(c1ccc2c(Nc3cnccn3)nn(-c3ccnc(N4C[C@@H]5C[C@H]4CN5)c3)c2c1)N1CCCCC1 [Example 21, 1-{2-[(1S,4S)-2,5-Diazabicyclo[2.2.1]hept-2-yl]pyridin-4-yl}-6-(piperidin-1-ylcarbonyl)-N-pyrazin-2-yl-1H-indazol-3-amine] | 7.98 | 6.47 |
| O=S(=O)(Nc1ccc2c(Nc3cnccn3)nn(-c3ccnc(N4C[C@@H]5C[C@H]4CN5)c3)c2c1)c1ccccc1 [Example 30, N-[1-{2-[(1S,4S)-2,5-Diazabicyclo[2.2.1]hept-2-yl]pyridin-4-yl}-3-(pyrazin-2-ylamino)-1H-indazol-6-yl]benzenesulfonamide] | 7.70 |  |
| COc1ccc2c(Nc3cnccn3)nn(-c3ccnc(N4C[C@@H]5C[C@H]4CN5)c3)c2c1 [Example 31, 1-{2-[(1S,4S)-2,5-Diazabicyclo[2.2.1]hept-2-yl]pyridin-4-yl}-6-methoxy-N-pyrazin-2-yl-1H-indazol-3-amine] | 8.10 | 6.95 |
| Cc1nc(N2C[C@@H]3C[C@H]2CN3)cc(-n2nc(Nc3cnccn3)c3ccccc32)n1 [Example 42, 1-{6-[(1S,4S)-2,5-Diazabicyclo[2.2.1]hept-2-yl]-2-methylpyrimidin-4-yl}-N-pyrazin-2-yl-1H-indazol-3-amine] | 8.05 | 6.60 |
| C[C@H]1CNCCN1c1cc(-n2nc(Nc3cnccn3)c3ccccc32)ccn1 [Example 50, 1-{2-[(2S)-2-methylpiperazin-1-yl]pyridin-4-yl}-N-pyrazin-2-yl-1H-indazol-3-amine] | 7.96 | 7.10 |
| Cc1ccc2c(Nc3cnccn3)nn(-c3ccnc(N4C[C@@H]5C[C@H]4CN5)c3)c2c1 [Example 55, 1-{2-[(1S,4S)-2,5-Diazabicyclo[2.2.1]hept-2-yl]pyridin-4-yl}-6-methyl-N-pyrazin-2-yl-1H-indazol-3-amine] | 8.22 | 6.85 |
| COc1ccc2c(Nc3cnccn3)nn(-c3cc(N4C[C@@H]5C[C@H]4CN5)ncn3)c2c1 [Example 56, 1-{6-[(1S,4S)-2,5-diazabicyclo[2.2.1]hept-2-yl]pyrimidin-4-yl}-6-methoxy-N-pyrazin-2-yl-1H-indazol-3-amine] | 7.82 | 6.75 |
| c1cnc(Nc2nn(-c3ccnc(N4C[C@@H]5C[C@H]4CN5)c3)c3cc(C4CC4)ccc23)cn1 [Example 58, 6-cyclopropyl-1-{2-[(1S,4S)-2,5-diazabicyclo[2.2.1]hept-2-yl]pyridin-4-yl}-N-pyrazin-2-yl-1H-indazol-3-amine] | 8.40 | 6.58 |
| COCCOc1ccc2c(Nc3cnccn3)nn(-c3ccnc(N4C[C@@H]5C[C@H]4CN5)c3)c2c1 [Example 61, 1-{2-[(1S,4S)-2,5-diazabicyclo[2.2.1]hept-2-yl]pyridin-4-yl}-6-(2-methoxyethoxy)-N-pyrazin-2-yl-1H-indazol-3-amine] | 7.92 | 6.87 |
| COc1ccc2c(Nc3cnccn3)nn(-c3ccnc(N4CCCNCC4)c3)c2c1 [Example 62, 1-[2-(1,4-diazepan-1-yl)pyridin-4-yl]-6-methoxy-N-pyrazin-2-yl-1H-indazol-3-amine] | 7.77 | 6.77 |
| Oc1ccc2c(Nc3cnccn3)nn(-c3cncc(N4C[C@@H]5C[C@H]4CN5)c3)c2c1 [Example 63, 1-{5-[(1S,4S)-2,5-Diazabicyclo[2.2.1]hept-2-yl]pyridin-3-yl}-3-(pyrazin-2-ylamino)-1H-indazol-6-ol] | 7.96 | 6.44 |
| c1ccc2c(c1)c(Nc1cnccn1)nn2-c1cc(N2C[C@@H]3C[C@H]2CN3)ccn1 [Example 69, 1-{4-[(1S,4S)-2,5-Diazabicyclo[2.2.1]hept-2-yl]pyridin-2-yl}-N-pyrazin-2-yl-1H-indazol-3-amine] | 7.89 | 6.58 |
| Cc1ccc2c(Nc3cnccn3)nn(-c3cncc(N4C[C@@H]5C[C@H]4CN5)c3)c2c1 [Example 71, 1-{5-[(1S,4S)-2,5-diazabicyclo[2.2.1]hept-2-yl]pyridin-3-yl}-6-methyl-N-pyrazin-2-yl-1H-indazol-3-amine] | 8.30 | 6.95 |
| COc1ccc2c(Nc3cnccn3)nn(-c3ccnc(N4CCNC[C@@H]4C)c3)c2c1 [Example 76, 6-Methoxy-1-{2-[(2S)-2-methylpiperazin-1-yl]pyridin-4-yl}-N-pyrazin-2-yl-1H-indazol-3-amine] | 7.96 | 6.86 |
| Oc1ccc2c(Nc3cnccn3)nn(-c3ccnc(N4CCCNCC4)c3)c2c1 [Example 86, 1-[2-(1,4-diazepan-1-yl)pyridin-4-yl]-3-(pyrazin-2-ylamino)-1H-indazol-6-ol] | 7.82 | 6.58 |
| Cc1ccnc(Nc2nn(-c3ccnc(N4C[C@@H]5C[C@H]4CN5)c3)c3cc(O)ccc23)c1 [Example 88, 1-{2-[(1S,4S)-2,5-diazabicyclo[2.2.1]hept-2-yl]pyridin-4-yl}-3-[(4-methylpyridin-2-yl)amino]-1H-indazol-6-ol] | 8.30 | 6.44 |
| COc1ccc2c(Nc3cnccn3)nn(-c3cccc(N4C[C@@H]5C[C@H]4CN5)c3)c2c1 [Example 89, 1-{3-[(1S,4S)-2,5-diazabicyclo[2.2.1]hept-2-yl]phenyl}-6-methoxy-N-pyrazin-2-yl-1H-indazol-3-amine] | 7.80 | 6.80 |
